# Experimental data taken from patent US20090099029A1, “Methods and substrates for conducting assays” (Invitrogen Corporation, priority 2005, published 2009).
# Molecular target: T1, kinases of Table 5 (Homo sapiens, UniProt O43318)
# T1 sequence (O43318 1-606): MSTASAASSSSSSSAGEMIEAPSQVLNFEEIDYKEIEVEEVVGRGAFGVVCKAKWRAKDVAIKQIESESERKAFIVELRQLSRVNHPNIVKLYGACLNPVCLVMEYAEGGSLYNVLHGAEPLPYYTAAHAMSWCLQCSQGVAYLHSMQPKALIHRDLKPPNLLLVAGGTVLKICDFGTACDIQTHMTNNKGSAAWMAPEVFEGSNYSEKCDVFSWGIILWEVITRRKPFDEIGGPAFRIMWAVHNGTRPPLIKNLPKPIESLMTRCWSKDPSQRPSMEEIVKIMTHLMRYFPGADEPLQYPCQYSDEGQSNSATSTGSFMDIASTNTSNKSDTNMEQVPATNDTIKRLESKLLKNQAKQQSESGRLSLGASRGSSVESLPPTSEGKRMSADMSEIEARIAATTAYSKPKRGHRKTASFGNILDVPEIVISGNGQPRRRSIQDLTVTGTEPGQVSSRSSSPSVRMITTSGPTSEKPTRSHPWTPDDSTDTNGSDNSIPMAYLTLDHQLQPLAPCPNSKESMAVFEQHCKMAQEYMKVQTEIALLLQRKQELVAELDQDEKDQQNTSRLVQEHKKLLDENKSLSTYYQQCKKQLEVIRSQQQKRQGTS
# Test: Further analysis of a plurality of inhibitors and a plurality of kinases (Table 5 inhibition results)
# Type: biochemical
# Design: scale not given here
# Details: kinase MAP3K7 (Part I, plate G9, Domain 0); inhibitor 90 uM
# Description: (§1) The wash solution is then discarded.
row,Inhibition Results (Level),SMILES
1,2,Cn1cc(C2=C(c3cn(CCCSC(=N)N)c4ccccc34)C(=O)NC2=O)c2ccccc21 [Ro-31-8220]

# Same assay, conditions: kinase MAP3K7 (Part I, plate G9, Domain 0); inhibitor 100 uM
row,Inhibition Results (Level),SMILES
1,0,COc1cc2ncnc(Nc3cccc(Cl)c3)c2cc1OC [AG 1478]
2,1,O=c1c(-c2ccc(O)cc2)coc2cc(O)cc(O)c12 [Genistein]
3,2,Cn1cc(C2=C(c3cn(CCCSC(=N)N)c4ccccc34)C(=O)NC2=O)c2ccccc21 [Ro-31-8220]

row,SMILES,Inhibition Results (Level)
1,N#C/C(=C/c1ccc(O)c(O)c1)C(=O)NCc1ccccc1 [AG 490],0

# Same assay, conditions: kinase MAP3K7 (Part I, plate G9, Domain 0); inhibitor <3.7 mM
row,Inhibition Results (Level),SMILES
1,0,O=c1c(-c2ccc(O)cc2)coc2cc(O)cc(O)c12 [Genistein]

# Molecular target: kinases of Table 5 (Homo sapiens, UniProt P06241)
# Test: as above
# Type: biochemical
# Design: scale not given here
# Details: kinase FYN (Part I, plate A4, Domain 0); inhibitor 90 uM
# Description: as §1
# Chain of kinases of Table 5 (Homo sapiens, UniProt P06241) (P06241 whole entry): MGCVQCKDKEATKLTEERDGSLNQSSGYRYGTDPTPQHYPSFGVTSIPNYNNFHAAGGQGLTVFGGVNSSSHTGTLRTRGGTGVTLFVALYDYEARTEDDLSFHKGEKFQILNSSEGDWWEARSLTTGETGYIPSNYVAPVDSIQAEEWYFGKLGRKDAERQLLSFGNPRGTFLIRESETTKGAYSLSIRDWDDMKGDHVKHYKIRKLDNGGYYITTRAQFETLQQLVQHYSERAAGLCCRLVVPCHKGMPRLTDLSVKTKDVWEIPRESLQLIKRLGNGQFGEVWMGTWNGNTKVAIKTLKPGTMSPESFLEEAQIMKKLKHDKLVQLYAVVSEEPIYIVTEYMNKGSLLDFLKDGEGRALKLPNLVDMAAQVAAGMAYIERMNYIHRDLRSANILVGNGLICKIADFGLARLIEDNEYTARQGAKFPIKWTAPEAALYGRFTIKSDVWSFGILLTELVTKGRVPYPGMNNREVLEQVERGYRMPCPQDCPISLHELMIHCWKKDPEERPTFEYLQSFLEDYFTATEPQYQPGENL
row,Inhibition Results (Level),SMILES
1,0,Cn1cc(C2=C(c3cn(CCCSC(=N)N)c4ccccc34)C(=O)NC2=O)c2ccccc21 [Ro-31-8220]

# Same assay, conditions: kinase FYN (Part I, plate A4, Domain 0); inhibitor 100 uM
row,Inhibition Results (Level),SMILES
1,2,COc1cc2ncnc(Nc3cccc(Cl)c3)c2cc1OC [AG 1478]
2,2,O=c1c(-c2ccc(O)cc2)coc2cc(O)cc(O)c12 [Genistein]
3,2,Cn1cc(C2=C(c3cn(CCCSC(=N)N)c4ccccc34)C(=O)NC2=O)c2ccccc21 [Ro-31-8220]

row,SMILES,Inhibition Results (Level)
1,N#C/C(=C/c1ccc(O)c(O)c1)C(=O)NCc1ccccc1 [AG 490],2

# Same assay, conditions: kinase FYN (Part I, plate A4, Domain 0); inhibitor <3.7 mM
row,Inhibition Results (Level),SMILES
1,1,O=c1c(-c2ccc(O)cc2)coc2cc(O)cc(O)c12 [Genistein]

# Molecular target: kinases of Table 5 (Homo sapiens, UniProt P11362)
# Test: as above
# Type: biochemical
# Design: scale not given here
# Details: kinase FGFR1; inhibitor 100 uM
# Description: as §1
# Chain of kinases of Table 5 (Homo sapiens, UniProt P11362) (P11362 22-822): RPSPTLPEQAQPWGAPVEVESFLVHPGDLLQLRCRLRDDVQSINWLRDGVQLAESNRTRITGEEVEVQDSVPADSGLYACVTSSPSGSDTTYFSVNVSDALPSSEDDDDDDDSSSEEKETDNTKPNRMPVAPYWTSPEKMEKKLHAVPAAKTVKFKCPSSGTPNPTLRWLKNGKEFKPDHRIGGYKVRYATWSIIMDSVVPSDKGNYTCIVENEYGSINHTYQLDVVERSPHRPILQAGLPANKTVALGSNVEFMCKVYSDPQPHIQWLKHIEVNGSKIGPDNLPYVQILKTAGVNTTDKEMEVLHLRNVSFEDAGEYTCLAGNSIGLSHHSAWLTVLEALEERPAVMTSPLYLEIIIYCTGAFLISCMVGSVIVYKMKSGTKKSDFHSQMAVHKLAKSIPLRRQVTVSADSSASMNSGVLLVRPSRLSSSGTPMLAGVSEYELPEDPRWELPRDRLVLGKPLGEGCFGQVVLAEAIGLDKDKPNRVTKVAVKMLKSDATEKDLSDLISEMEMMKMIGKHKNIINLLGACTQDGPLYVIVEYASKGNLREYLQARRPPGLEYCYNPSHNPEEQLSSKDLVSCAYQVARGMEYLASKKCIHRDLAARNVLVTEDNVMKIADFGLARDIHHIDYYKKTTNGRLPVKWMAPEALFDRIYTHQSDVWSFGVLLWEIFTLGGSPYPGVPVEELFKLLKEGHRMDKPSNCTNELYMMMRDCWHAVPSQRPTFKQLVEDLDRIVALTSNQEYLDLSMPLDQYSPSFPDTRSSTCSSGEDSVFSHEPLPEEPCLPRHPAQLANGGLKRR
row,Inhibition level,SMILES
1,1,COc1cc2ncnc(Nc3cccc(Cl)c3)c2cc1OC [AG 1478]
2,0,O=c1c(-c2ccc(O)cc2)coc2cc(O)cc(O)c12 [Genistein]
3,2,Cn1cc(C2=C(c3cn(CCCSC(=N)N)c4ccccc34)C(=O)NC2=O)c2ccccc21 [Ro-31-8220]

row,SMILES,Inhibition level
1,N#C/C(=C/c1ccc(O)c(O)c1)C(=O)NCc1ccccc1 [AG 490],0

# Molecular target: kinases of Table 5 (Homo sapiens, UniProt P24723)
# Test: as above
# Type: biochemical
# Design: scale not given here
# Details: kinase PRKCH; concentration not given
# Description: as §1
# Chain of kinases of Table 5 (Homo sapiens, UniProt P24723) (P24723 whole entry): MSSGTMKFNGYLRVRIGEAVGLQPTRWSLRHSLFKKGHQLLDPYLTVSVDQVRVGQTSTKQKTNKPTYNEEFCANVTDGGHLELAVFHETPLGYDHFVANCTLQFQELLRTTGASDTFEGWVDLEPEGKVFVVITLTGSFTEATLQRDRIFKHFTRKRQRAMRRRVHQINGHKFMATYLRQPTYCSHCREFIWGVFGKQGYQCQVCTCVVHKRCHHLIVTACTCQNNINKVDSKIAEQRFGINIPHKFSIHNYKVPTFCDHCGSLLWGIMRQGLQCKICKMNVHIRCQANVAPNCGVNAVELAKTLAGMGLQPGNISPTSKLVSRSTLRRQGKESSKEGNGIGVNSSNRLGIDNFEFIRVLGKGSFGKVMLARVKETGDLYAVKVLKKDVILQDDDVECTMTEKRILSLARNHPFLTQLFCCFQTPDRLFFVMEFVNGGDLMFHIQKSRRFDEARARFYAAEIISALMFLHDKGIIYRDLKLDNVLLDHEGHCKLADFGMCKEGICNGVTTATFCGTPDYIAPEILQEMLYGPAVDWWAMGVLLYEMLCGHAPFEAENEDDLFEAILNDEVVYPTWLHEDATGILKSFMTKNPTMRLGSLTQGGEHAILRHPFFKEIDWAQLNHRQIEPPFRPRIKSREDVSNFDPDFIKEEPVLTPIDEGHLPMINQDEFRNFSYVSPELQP
row,Inhibition level,SMILES
1,0,O=c1c(-c2ccc(O)cc2)coc2cc(O)cc(O)c12 [Genistein]
2,2,Cn1cc(C2=C(c3cn(CCCSC(=N)N)c4ccccc34)C(=O)NC2=O)c2ccccc21 [Ro-31-8220]

# Same assay, conditions: kinase PRKCH; inhibitor 100 uM
row,Inhibition level,SMILES
1,0,COc1cc2ncnc(Nc3cccc(Cl)c3)c2cc1OC [AG 1478]
2,2,O=c1c(-c2ccc(O)cc2)coc2cc(O)cc(O)c12 [Genistein]
3,2,Cn1cc(C2=C(c3cn(CCCSC(=N)N)c4ccccc34)C(=O)NC2=O)c2ccccc21 [Ro-31-8220]

row,SMILES,Inhibition level
1,N#C/C(=C/c1ccc(O)c(O)c1)C(=O)NCc1ccccc1 [AG 490],2

# Molecular target: kinases of Table 5 (Homo sapiens, UniProt P68400)
# Test: as above
# Type: biochemical
# Design: scale not given here
# Details: kinase CSNK2A1; concentration not given
# Description: as §1
# Chain of kinases of Table 5 (Homo sapiens, UniProt P68400) (P68400 whole entry): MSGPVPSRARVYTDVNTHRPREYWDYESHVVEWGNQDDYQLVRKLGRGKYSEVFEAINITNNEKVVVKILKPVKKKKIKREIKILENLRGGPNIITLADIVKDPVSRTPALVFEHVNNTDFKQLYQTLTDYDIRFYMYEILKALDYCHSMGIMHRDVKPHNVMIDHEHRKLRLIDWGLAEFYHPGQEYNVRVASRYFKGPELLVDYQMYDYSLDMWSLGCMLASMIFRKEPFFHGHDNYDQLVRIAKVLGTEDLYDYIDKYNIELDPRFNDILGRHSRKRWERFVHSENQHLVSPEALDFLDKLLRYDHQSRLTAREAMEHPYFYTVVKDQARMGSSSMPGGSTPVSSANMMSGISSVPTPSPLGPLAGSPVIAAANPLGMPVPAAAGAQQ
row,Inhibition level,SMILES
1,0,O=c1c(-c2ccc(O)cc2)coc2cc(O)cc(O)c12 [Genistein]
2,0,Cn1cc(C2=C(c3cn(CCCSC(=N)N)c4ccccc34)C(=O)NC2=O)c2ccccc21 [Ro-31-8220]

# Same assay, conditions: kinase CSNK2A1; inhibitor 100 uM
row,Inhibition level,SMILES
1,2,COc1cc2ncnc(Nc3cccc(Cl)c3)c2cc1OC [AG 1478]
2,2,O=c1c(-c2ccc(O)cc2)coc2cc(O)cc(O)c12 [Genistein]
3,2,Cn1cc(C2=C(c3cn(CCCSC(=N)N)c4ccccc34)C(=O)NC2=O)c2ccccc21 [Ro-31-8220]

row,SMILES,Inhibition level
1,N#C/C(=C/c1ccc(O)c(O)c1)C(=O)NCc1ccccc1 [AG 490],2

# Molecular target: T2, kinases of Table 5 (Homo sapiens, UniProt Q13043)
# T2 sequence (Q13043 1-487): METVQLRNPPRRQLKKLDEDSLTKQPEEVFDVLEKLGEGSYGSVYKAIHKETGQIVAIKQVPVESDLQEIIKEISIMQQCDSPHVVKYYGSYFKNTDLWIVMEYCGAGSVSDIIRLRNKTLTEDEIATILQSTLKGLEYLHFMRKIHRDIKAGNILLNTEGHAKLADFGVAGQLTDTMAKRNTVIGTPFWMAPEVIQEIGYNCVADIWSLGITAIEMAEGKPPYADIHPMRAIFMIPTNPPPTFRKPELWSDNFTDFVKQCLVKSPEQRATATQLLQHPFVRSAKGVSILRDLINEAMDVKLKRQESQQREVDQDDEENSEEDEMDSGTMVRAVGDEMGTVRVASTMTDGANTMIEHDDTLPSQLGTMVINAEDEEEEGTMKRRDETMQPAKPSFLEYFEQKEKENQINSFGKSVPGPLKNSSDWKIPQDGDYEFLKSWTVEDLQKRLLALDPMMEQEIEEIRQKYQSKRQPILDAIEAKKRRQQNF
# Test: as above
# Type: biochemical
# Design: scale not given here
# Details: kinase STK4; concentration not given
# Description: as §1
row,Inhibition level,SMILES
1,0,O=c1c(-c2ccc(O)cc2)coc2cc(O)cc(O)c12 [Genistein]
2,0,Cn1cc(C2=C(c3cn(CCCSC(=N)N)c4ccccc34)C(=O)NC2=O)c2ccccc21 [Ro-31-8220]

# Same assay, conditions: kinase STK4; inhibitor 100 uM
row,Inhibition level,SMILES
1,1,COc1cc2ncnc(Nc3cccc(Cl)c3)c2cc1OC [AG 1478]
2,0,O=c1c(-c2ccc(O)cc2)coc2cc(O)cc(O)c12 [Genistein]
3,2,Cn1cc(C2=C(c3cn(CCCSC(=N)N)c4ccccc34)C(=O)NC2=O)c2ccccc21 [Ro-31-8220]

row,SMILES,Inhibition level
1,N#C/C(=C/c1ccc(O)c(O)c1)C(=O)NCc1ccccc1 [AG 490],0

# Molecular target: kinases of Table 5 (Homo sapiens, UniProt Q13557)
# Test: as above
# Type: biochemical
# Design: scale not given here
# Details: kinase CAMK2D; concentration not given
# Description: as §1
# Chain of kinases of Table 5 (Homo sapiens, UniProt Q13557) (Q13557 whole entry): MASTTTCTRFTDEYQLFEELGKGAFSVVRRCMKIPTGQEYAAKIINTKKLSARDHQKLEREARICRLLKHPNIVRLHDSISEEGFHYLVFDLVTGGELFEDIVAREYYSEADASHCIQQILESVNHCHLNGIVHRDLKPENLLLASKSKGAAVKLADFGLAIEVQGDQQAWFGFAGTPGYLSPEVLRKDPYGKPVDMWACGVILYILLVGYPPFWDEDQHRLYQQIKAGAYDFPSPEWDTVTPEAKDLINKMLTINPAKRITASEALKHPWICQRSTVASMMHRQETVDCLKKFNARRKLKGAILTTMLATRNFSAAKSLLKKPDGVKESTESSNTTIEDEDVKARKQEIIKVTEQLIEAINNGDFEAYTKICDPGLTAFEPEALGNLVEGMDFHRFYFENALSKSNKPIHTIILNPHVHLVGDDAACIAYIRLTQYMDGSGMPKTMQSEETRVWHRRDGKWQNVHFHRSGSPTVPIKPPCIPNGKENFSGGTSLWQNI
row,Inhibition level,SMILES
1,0,O=c1c(-c2ccc(O)cc2)coc2cc(O)cc(O)c12 [Genistein]
2,2,Cn1cc(C2=C(c3cn(CCCSC(=N)N)c4ccccc34)C(=O)NC2=O)c2ccccc21 [Ro-31-8220]

# Same assay, conditions: kinase CAMK2D; inhibitor 100 uM
row,Inhibition level,SMILES
1,2,COc1cc2ncnc(Nc3cccc(Cl)c3)c2cc1OC [AG 1478]
2,2,O=c1c(-c2ccc(O)cc2)coc2cc(O)cc(O)c12 [Genistein]
3,0,Cn1cc(C2=C(c3cn(CCCSC(=N)N)c4ccccc34)C(=O)NC2=O)c2ccccc21 [Ro-31-8220]

row,SMILES,Inhibition level
1,N#C/C(=C/c1ccc(O)c(O)c1)C(=O)NCc1ccccc1 [AG 490],2

# Molecular target: kinases of Table 5 (Homo sapiens, UniProt Q8IVW4)
# Test: as above
# Type: biochemical
# Design: scale not given here
# Details: kinase CDKL3; inhibitor 100 uM
# Description: as §1
row,Inhibition level,SMILES
1,1,COc1cc2ncnc(Nc3cccc(Cl)c3)c2cc1OC [AG 1478]
2,0,O=c1c(-c2ccc(O)cc2)coc2cc(O)cc(O)c12 [Genistein]
3,2,Cn1cc(C2=C(c3cn(CCCSC(=N)N)c4ccccc34)C(=O)NC2=O)c2ccccc21 [Ro-31-8220]

row,SMILES,Inhibition level
1,N#C/C(=C/c1ccc(O)c(O)c1)C(=O)NCc1ccccc1 [AG 490],2

# Molecular target: kinases of Table 5 (Homo sapiens, UniProt Q9UIK4)
# Test: as above
# Type: biochemical
# Design: scale not given here
# Details: kinase DAPK2; concentration not given
# Description: as §1
# Chain of kinases of Table 5 (Homo sapiens, UniProt Q9UIK4) (Q9UIK4 whole entry): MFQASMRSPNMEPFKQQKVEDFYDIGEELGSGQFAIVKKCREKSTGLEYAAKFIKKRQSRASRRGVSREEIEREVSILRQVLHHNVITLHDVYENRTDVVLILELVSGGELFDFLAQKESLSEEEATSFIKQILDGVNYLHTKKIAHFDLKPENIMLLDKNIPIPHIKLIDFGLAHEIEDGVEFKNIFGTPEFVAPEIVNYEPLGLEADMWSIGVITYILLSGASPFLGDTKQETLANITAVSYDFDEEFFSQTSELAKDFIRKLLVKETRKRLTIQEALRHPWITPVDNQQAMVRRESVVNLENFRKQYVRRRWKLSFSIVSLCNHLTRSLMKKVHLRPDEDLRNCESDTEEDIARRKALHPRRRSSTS
row,Inhibition level,SMILES
1,0,O=c1c(-c2ccc(O)cc2)coc2cc(O)cc(O)c12 [Genistein]
2,2,Cn1cc(C2=C(c3cn(CCCSC(=N)N)c4ccccc34)C(=O)NC2=O)c2ccccc21 [Ro-31-8220]

# Same assay, conditions: kinase DAPK2; inhibitor 100 uM
row,Inhibition level,SMILES
1,0,COc1cc2ncnc(Nc3cccc(Cl)c3)c2cc1OC [AG 1478]
2,2,O=c1c(-c2ccc(O)cc2)coc2cc(O)cc(O)c12 [Genistein]
3,2,Cn1cc(C2=C(c3cn(CCCSC(=N)N)c4ccccc34)C(=O)NC2=O)c2ccccc21 [Ro-31-8220]

row,SMILES,Inhibition level
1,N#C/C(=C/c1ccc(O)c(O)c1)C(=O)NCc1ccccc1 [AG 490],2

# Molecular target: T3, kinases of Table 5 (Homo sapiens, UniProt Q9Y616)
# T3 sequence (Q9Y616 1-596): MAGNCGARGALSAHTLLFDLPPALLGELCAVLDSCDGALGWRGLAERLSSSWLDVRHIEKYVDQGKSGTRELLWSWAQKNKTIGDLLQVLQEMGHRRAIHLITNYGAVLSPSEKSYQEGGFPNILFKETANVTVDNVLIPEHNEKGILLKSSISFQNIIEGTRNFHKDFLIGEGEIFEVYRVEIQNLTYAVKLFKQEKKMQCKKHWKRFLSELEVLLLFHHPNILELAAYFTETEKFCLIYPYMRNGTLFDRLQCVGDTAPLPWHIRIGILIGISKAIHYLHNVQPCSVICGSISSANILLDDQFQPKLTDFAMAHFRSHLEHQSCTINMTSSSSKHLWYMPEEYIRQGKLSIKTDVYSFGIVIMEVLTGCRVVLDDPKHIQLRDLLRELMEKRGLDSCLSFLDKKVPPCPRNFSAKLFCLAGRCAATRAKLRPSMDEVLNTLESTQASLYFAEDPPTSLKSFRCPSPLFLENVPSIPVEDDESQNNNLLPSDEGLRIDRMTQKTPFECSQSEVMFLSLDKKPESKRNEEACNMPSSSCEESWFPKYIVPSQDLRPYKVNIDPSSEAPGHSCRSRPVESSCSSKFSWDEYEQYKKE
# Test: as above
# Type: biochemical
# Design: scale not given here
# Details: kinase IRAK3 (Part I, plate C9, Domain 1); inhibitor 100 uM
# Description: as §1
row,Inhibition Results (Level),SMILES
1,2,COc1cc2ncnc(Nc3cccc(Cl)c3)c2cc1OC [AG 1478]
2,2,O=c1c(-c2ccc(O)cc2)coc2cc(O)cc(O)c12 [Genistein]
3,2,Cn1cc(C2=C(c3cn(CCCSC(=N)N)c4ccccc34)C(=O)NC2=O)c2ccccc21 [Ro-31-8220]

row,SMILES,Inhibition Results (Level)
1,N#C/C(=C/c1ccc(O)c(O)c1)C(=O)NCc1ccccc1 [AG 490],0

# Molecular target: kinases of Table 5 (Homo sapiens, UniProt Q9Y6R4)
# Test: as above
# Type: biochemical
# Design: scale not given here
# Details: kinase MAP3K4 (Part I, plate E7, Domain 1); inhibitor 100 uM
# Description: as §1
# Chain of kinases of Table 5 (Homo sapiens, UniProt Q9Y6R4) (Q9Y6R4 whole entry): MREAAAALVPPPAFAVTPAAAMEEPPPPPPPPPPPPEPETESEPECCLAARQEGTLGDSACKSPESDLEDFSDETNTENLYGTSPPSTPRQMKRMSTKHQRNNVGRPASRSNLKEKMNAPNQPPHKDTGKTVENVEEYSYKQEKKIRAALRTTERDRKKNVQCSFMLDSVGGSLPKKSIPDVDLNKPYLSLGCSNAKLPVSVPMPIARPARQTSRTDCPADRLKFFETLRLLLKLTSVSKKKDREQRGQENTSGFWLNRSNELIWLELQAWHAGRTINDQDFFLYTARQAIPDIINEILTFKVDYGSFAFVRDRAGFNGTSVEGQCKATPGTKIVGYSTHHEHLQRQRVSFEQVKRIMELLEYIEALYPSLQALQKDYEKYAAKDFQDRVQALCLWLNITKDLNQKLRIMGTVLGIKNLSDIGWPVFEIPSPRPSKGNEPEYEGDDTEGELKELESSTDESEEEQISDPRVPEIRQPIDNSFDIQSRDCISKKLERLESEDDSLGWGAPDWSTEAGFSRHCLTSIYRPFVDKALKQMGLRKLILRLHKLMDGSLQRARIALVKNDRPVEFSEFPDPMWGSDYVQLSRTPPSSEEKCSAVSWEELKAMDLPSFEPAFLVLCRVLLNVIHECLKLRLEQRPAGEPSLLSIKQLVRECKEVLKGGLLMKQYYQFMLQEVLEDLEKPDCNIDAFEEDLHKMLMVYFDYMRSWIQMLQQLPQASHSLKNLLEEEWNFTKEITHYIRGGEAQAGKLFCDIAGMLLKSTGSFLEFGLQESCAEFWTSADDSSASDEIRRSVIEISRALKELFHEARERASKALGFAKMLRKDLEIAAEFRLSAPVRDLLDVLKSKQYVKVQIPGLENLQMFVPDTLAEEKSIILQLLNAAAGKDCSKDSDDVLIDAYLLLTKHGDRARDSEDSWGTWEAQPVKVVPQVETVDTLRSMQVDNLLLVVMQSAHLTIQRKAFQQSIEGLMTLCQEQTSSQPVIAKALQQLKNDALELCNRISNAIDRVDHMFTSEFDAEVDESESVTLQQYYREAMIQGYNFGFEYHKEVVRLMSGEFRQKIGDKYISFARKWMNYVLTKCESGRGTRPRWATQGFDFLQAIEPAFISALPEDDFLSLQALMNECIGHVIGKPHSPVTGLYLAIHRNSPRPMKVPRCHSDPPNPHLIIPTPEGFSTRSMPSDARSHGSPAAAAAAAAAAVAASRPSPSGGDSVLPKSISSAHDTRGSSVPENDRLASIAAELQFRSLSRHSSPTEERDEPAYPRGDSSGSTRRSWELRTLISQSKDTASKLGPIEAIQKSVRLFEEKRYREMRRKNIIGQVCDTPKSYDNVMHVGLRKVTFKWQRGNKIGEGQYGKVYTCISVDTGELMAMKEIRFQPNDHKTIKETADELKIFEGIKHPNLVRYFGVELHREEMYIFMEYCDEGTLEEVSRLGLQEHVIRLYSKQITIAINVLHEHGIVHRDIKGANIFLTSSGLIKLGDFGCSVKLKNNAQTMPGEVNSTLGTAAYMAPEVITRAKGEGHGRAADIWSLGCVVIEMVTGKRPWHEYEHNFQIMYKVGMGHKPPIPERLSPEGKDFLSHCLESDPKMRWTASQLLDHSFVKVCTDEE
row,Inhibition Results (Level),SMILES
1,1,COc1cc2ncnc(Nc3cccc(Cl)c3)c2cc1OC [AG 1478]
2,1,O=c1c(-c2ccc(O)cc2)coc2cc(O)cc(O)c12 [Genistein]
3,2,Cn1cc(C2=C(c3cn(CCCSC(=N)N)c4ccccc34)C(=O)NC2=O)c2ccccc21 [Ro-31-8220]

row,SMILES,Inhibition Results (Level)
1,N#C/C(=C/c1ccc(O)c(O)c1)C(=O)NCc1ccccc1 [AG 490],2
